Reference: US8044057B2, “Methods for suppressing an immune response or treating a proliferative disorder” (The United States of America as represented by the …, priority 2003, dated 2011)
pIC50: −log10 of the molar value.

How the values were obtained:
recombinant CK2 = molecular target: T1, recombinant CK2 (Homo sapiens, UniProt P68400); experiment: Casein kinase 2 activity kit, 32P incorporation into substrate peptide; assay type: biochemical
T1 construct: purchased Upstate Biotechnology 17-132 (number of the activity kit, not of the enzyme)
T1 sequence (P68400 whole entry): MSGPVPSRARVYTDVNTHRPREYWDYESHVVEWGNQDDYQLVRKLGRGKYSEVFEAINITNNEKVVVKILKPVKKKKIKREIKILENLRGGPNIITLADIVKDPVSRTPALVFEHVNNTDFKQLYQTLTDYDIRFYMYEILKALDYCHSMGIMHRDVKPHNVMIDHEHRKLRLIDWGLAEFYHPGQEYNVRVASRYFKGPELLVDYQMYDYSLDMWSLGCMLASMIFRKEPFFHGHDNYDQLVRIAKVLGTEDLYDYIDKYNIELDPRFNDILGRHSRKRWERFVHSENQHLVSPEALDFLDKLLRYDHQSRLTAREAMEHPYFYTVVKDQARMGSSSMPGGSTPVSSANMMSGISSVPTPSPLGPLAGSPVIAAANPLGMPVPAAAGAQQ
T1 sequence (P67870 2-215 partner limits assumed): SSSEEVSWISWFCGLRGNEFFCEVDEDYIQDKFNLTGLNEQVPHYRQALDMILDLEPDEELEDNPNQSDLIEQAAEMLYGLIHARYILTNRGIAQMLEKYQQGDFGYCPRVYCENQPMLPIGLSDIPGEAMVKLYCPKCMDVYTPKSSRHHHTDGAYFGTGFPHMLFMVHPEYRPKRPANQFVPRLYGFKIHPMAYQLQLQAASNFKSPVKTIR
Description: FIGS. 5A-5B are bar graphs showing that LY303511 inhibits the cell cycle by causing combined G1 and G2/M arrest and that LY303511 inhibits CK2 activity. For the data shown in FIG. 5A, PASM cells were cultured in medium with FBS for 48 hours before the addition of 0-100 μM LY303511 without or with raparnycin, 400 ng/ml, for 24 hours. Cells were then harvested and incubated with propidium iodide for 2 hours before counting using a Becton-Dickson FACSCalibur. Data are the means (±SEM) of percentages of cells in G1, S, or G2/M phase of the cell cycle in three experiments with duplicate assays. *p<0.05 vs. DMSO control, or †p<0.05 vs. 10 μM LY303511, by Student's t—test. FIG. 5B is a bar graph showing that LY303511 or LY294002 inhibits CK2 in vitro. As per the manufacturer (Upstate Biotechnologies), 0 or 100 ng of recombinant CK2 were incubated with CK2 substrate peptide and ^32P-γ-ATP for 10 min with 1% DMSO or inhibitors as indicated. Data are the means of values for samples with inhibitors expressed as percentage of that for control, which was (mean±SEM) 0.2±0.03 pmol phosphate/100 ng protein/10 min. Data are from three experiments performed in duplicate. *p<0.05 by Student's t-test when compared to DMSO control.
One specific assay for casein kinase 2 activity is available commercially as a kit from Upstate Biotechnology (New York). The assay is based on phosphorylation of a specific substrate (CK-2 substrate peptide) using the transfer of the gamma-phosphate of ^32P-ATP by casein kinase 2 during a 10 minute incubation at 30° C. The phosphorylated substrate is then separated from the residual ^32P-ATP using P81 phosphocellulose paper, and quantified by scintillation counting.
Casein kinase 2 (CK2) activity (counts per rninute) was measured using a casein kinase 2 activity kit (Upstate Biotechnology catalogue number 17-132) by incubating recombinant 100 ng CK2, magnesium/ATP cocktail (10 mcCi ^32P-garnma-ATP, 0.675 micromoles MgCl2, 4.5 nmoles ATP), and 10 micromoles peptide substrate (arnino acid sequence RRRDDDSDDD (SEQ ID NO: 1) in 50 mcl assay buffer without or with the indicated concentrations of DMSO (1%), LY294002, LY303511, or rapamycin for 10 minutes at 30° C. Assays were stopped with 20 mcl of 40% trichloroacetic acid, and 25 mcl were spotted on P81 phosphocellulose paper squares before washing 3 times with 0.75% phosphoric acid, and once with acetone. 32P incorporation on the substrate peptide was detected by counting the phosphocellulose squares in 5 ml scintillation fluid using a Packard 100 Tri-Carb liquid scintillation counter.
Measurement of casein kinase 2 (CK2) activity: CK2 activity (counts per minute) was measured using a CK2 activity kit (Upstate, Charlottesville, Va.) by incubating 100 ng of recombinant CK2, rnagnesium/ATP cocktail (10 μCi ^32P-gamma-ATP, 0.675 μmol MgCl2, 4.5 nmol ATP), and 10 μmol peptide substrate (amino acid sequence RRRDDDSDDD) in 50 μl assay buffer (20 mM MOPS, pH 7.2, 5 mM EGTA, 25 mM β-glycerol phosphate, 1 mM sodium orthovanadate, 1 mM dithiothreitol) without or with the indicated concentrations of LY294002, LY303511, wortmannin or rapamycin in 1% DMSO for 10 min at 30° C. Assays were stopped with 20 μl of 40% trichloroacetic acid, and samples (25 μl) of supernatant were applied to P81 phosphocellulose paper squares, which were then washed three times with 0.75% phosphoric acid, and once with acetone. ^32P in the substrate peptide was quantified using a Packard 100 Tri-Carb liquid scintillation counter on phosphocellulose squares in 5 ml of scintillation fluid. Activity is expressed as pmol phosphate incorporated per 10 minutes. CK2 activity measured in the presence of inhibitors was divided by that measured for the DMSO control (=100% control).

PASM cells = experiment: BrDU incorporation (in situ ELISA) in PASM cells; assay type: cell-based, human
Description: PASM cells (4,000 per well) were grown in 96-well plates for 24 hours before incubation for 24 hours in medium with (FIG. 4C) or without 10% FBS (FIG. 4D). Cells were then incubated in fresh medium containing 10% FBS, 10 μM BrDU, and 0-100 μM LY303511 without or with rapamycin, 200 or 400 ng/ml, for 24 hours BrDU incorporation was measured by in situ ELISA as per the manufacturer's instructions (BrDU detection kit, Roche). For each experiment, BrDU content of cells incubated with inhibitors was expressed relative to that in cells incubated with 0.1% DMSO control (% control). Mean control (=100%) absorbance for each experiment using cells from different donors was 0.22±0.06 and 0.24±0.06 for FIG. 4C and FIG. 4D, respectively (=100%). Data are means of BrDU values ±SEM from 3 experiments with assays in sextuplet. *p<0.05 vs. DMSO control, or †p<0.05 vs. 10 μM LY303511, by Student's t-test.
Measurement of cell proliferation:. Cell proliferation, or DNA synthesis, was estimated using an in situ 5-bromo-2-deoxy-uridine (BrDU) detection kit as per the manufacturer's instructions (Roche Diagnostics; Nutley, N.J.). […] Cells were fixed, and BrDU was detected using a peroxidase-conjugated anti-BrDU antibody. The measured absorbance data in cells treated with inhibitors were normalized to those treated with DMSO control (% control).

A549 cells = experiment: Propidium iodide flow cytometry cell cycle analysis in A549 cells; assay type: cell-based, human

pIC50 (recombinant CK2; recombinant CK2 in vitro, read-out: IC50 for casein kinase 2): 4.00 to 5.00
SMILES: O=c1cc(N2CCNCC2)oc2c(-c3ccccc3)cccc12 [LY303511, 2-(4-piperazinyl)-8-phenyl-4H-1-benzopyran-4-one]
CK2 activity (recombinant CK2; 100 ng recombinant CK2, 10 min at 30° C.): concentration-dependent inhibition of CK2 activity | preferential inhibition as compared to PI3K (recombinant CK2; P70 S6 kinase and casein kinase 2 versus PI3K): preferentially inhibits P70 S6 kinase and casein kinase 2 as compared to PI3K | proliferation (BrDu incorporation) (PASM cells; PASM cells in serum-free medium for 24 h before addition of FBS (FIG. 4D), compared with serum pre-incubation): enhanced in the absence of serum | proliferation (BrDu incorporation) (PASM cells; PASM cells incubated with serum before addition of inhibitors (FIG. 4C)): inhibited in concentration-dependent fashion | proportion of cells in G2/M (A549 cells; 100 μM LY303511, 24 hours): remained unchanged | fraction of cells in S phase (A549 cells; 24 hours, 10 or 100 μM LY303511 without or with rapamycin 200 ng/ml): significantly reduced the fraction of cells in S phase | apoptosis or necrosis (A549 cells; flow cytometric analysis of propidium iodide-stained cells): did not induce apoptosis or necrosis
